According to US20160168541A1, “TRANSDUCIBLE MATERIALS FOR CELL REPROGRAMMING” (VIVOSCRIPT, INC., priority 2013, published 2016):
Entries after “also recorded” stand apart in the source; their conditions may differ.

How the values were obtained:
Type in all cases: cell-based
[1] = test system: Oct4 target genes (Oct4, Sox2, Nanog, Smad3 and Smad4); experiment: RT-qPCR of Oct4 target genes in HepG2 cells treated with transducible materials; details: serum-free medium, 6 hours, normalized by GAPDH, sGFP-treated sample set as 1.00
Experimental: FIG. 2. Comparison of sGFP-Oct4(mNES) and sGFP-Oct4 protein in regulating the expression of downstream genes. HepG2 cells were treated with sGFP, sGFP-Oct4 or sGFP-Oct4(mNES) in serum-free medium for 6 hours. RNA was isolated and RT-qPCR was performed. The expression of each gene was normalized by the expression level of GAPDH. The relative expression level of each gene in the control condition (sGFP-treated sample) was set as 1.00.
HepG2 cells were treated with transducible materials comprising isolated polypeptide of sGFP, sGFP-Oct4-11R or sGFP-Oct4(mNES)-11R in serum-free medium for 6 hours. RNA was extracted from each sample using RNeasy Micro Kit from Qiagen and cDNA was synthesized through reverse transcription reaction. RT-qPCRs of five Oct4 target genes (Oct4, Sox2, Nanog, Smad3 and Smad4 were performed using a pair of primers specific to each target gene and a hydrolysis probe from Roche Universal ProbeLibrary on LightCycler 480 II. The expression of each gene was normalized by the expression level of GAPDH. The relative expression level of each gene in the control condition (sGFP-treated sample) was set as 1.00.

[2] = test system: adult human fibroblasts; experiment: Live fluorescent imaging of uptake and nuclear occupancy of sGFP polypeptides in fibroblasts; details: 10 μg/ml
Experimental: FIG. 5. Live fluorescent imaging of human fibroblasts after culturing in 10 μg/ml of first generation sGFP-MyoD-11R.
In the first generation of transducible materials, a sGFP transduction domain and a poly-arginine (11R) were fused to the N-terminus and C-terminus of MyoD through a linker (SEQ ID NO: 99) respectively to generate sGFP-MyoD-11R (SEQ ID NO: 156). […] The nuclear entry of sGFP-MyoD-11R was increased by using 100 μg/ml sGFP-MyoD-11R and electroporation, which successful reprogrammed very low percentage (around 10%) of FBs to MyoD+ myoblasts.
The second generation of transducible materials, a strong classic nuclear localization sequence (cNLS), the SV40 T antigen NLS, was added in-between sGFP and MyoD-11R (SEQ ID NO: 157 and FIG. 3).
Leptomycin B (leptoB), a nuclear export blocker, was added at 5 nM to adult fibroblasts to enhance nuclear occupancy of sGFP-NLS-MyoD-11R. […] Higher concentrations of leptoB might have off-target effects, which limits its use in enhancing nuclear retention of specific polypeptides.
In the third generation of transducible materials, the NES of MyoD was mutated to generate sGFP-NLS-MyoD(mNES)-11R (SEQ ID NO: 127 and FIG. 3) to further improve their nuclear occupancy and transcription efficiency. […] These SCs were positive for Myf5 (>90% of SCs) at 22 days after transduction (FIG. 8B). Also, these SCs could be induced to differentiate to myoblasts with downregulation of Pax7 and upregulation of MyoD via a published myogenic protocol (Cosgrove et al, Rejuvenation of the muscle stem cell population restores strength to injured aged muscles, Nat Med., 20:255-64 (2014)). […] Thus, by using sGFP-NLS-MyoD(mNES)-11R, efficient fibroblasts conversion to SMPCs can be achieved in a controlled fashion. The risk of extensive durations of MyoD activation is completely avoided. Most myogenic analysis was performed at >2 weeks after polypeptide transduction to avoid confounding issues from added exogenous polypeptides. In summary, adult fibroblast can be successfully reprogrammed to SCs using sGFP-NLS-MyoD(mNES)-11R with defined kinetics (2-day nuclear occupancy and 2-3 week peptide lifespan).

[3] = test system: adult human fibroblasts; experiment: Reprogramming of fibroblasts to skeletal muscle progenitor cells (satellite cells, myoblasts)
Experimental: FIG. 4. Schematic of experimental protocol to convert fibroblasts to myoblasts with transducible materials derived from MyoD.
In this example, three versions of transducible materials derived from MyoD (the master myogenic transcription factor) were generated and their effects on reprogramming fibroblast cells into skeletal muscle progenitor cells (SMPCs) were compared.
Most myogenic analysis was performed at >2 weeks after polypeptide transduction to avoid confounding issues from added exogenous polypeptides.

Substance | expression of Oct4 target genes [1] | time the polypeptide stays in the nucleus ([2]; leptomycin B 5 nM) [h] | nuclear occupancy (GFP signal in nuclei) with leptomycin B ([2]; leptomycin B 5 nM, third generation at 30 min, 24 hours and 48 hours) | nuclear occupancy (localization of GFP signal) ([2]; no leptomycin B) | change of nuclear occupancy with time ([2]; no leptomycin B, 24 hours) | reprogramming of fibroblasts to SMPCs ([3]; 10 μg/ml, no leptomycin B) | reprogramming efficiency of adult fibroblasts to SMPCs ([3]; continuous presence of leptomycin B 5 nM)
sGFP-Oct4-11R: Fusion polypeptide of supercharged GFP, Oct4 and 11R, SEQ ID NO: 155, unmutated NES | does not increase | – | – | – | – | – | –
sGFP-NLS-MyoD-11R: Second generation: SV40 T antigen NLS added between sGFP and MyoD-11R, SEQ ID NO: 157 | – | > 24 | slightly improves the nuclear occupancy | more transducible materials were observed in nuclei; also recorded: GFP signal were observed in the nuclei | significantly decreased within 24 hours; also recorded: GFP signal in the nuclei decreased after 24 hours | low and inconsistent | around 5%
